The text below walks through data of ChEMBL document CHEMBL1909046, “DrugMatrix in vitro pharmacology data”.

Data set [1] in a line: DRUGMATRIX: Leukotriene, BLT (LTB4) radioligand binding (ligand: [3H]LTB4). The data set is classed as cell membranes, Membrane. The settings on record: u-937; Not Active = under 50% inhibition at 10 µM.
Data set [2] concerns the target T1, Muscarinic acetylcholine receptor M4 (Homo sapiens, UniProt P08173). Note: in other assays of this panel Not Active means under 50% inhibition at 10 µM.
T1 sequence (P08173 whole entry): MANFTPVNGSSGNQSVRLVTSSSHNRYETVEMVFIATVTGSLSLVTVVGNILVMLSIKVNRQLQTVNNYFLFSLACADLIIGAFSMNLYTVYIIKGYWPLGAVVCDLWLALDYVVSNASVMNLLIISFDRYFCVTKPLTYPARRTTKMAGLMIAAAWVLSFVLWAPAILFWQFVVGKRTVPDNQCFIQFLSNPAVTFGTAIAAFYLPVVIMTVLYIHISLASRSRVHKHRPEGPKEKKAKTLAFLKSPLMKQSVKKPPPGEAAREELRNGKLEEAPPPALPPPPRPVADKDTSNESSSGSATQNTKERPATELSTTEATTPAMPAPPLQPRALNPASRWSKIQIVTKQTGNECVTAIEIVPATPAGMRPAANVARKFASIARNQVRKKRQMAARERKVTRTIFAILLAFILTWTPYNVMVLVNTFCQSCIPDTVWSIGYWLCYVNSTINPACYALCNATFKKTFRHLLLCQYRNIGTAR
Format: cell membranes, CHO-K1, Membrane. Particulars: cho-k1.

Another data set deals with D(1A) dopamine receptor (Homo sapiens, UniProt P21728). Briefly: DRUGMATRIX: Dopamine D1 radioligand binding (ligand: [3H] SCH-23390). The settings on record: cho; Not Active = under 50% inhibition at 10 µM. Format: cell membranes, CHO, Membrane.
Data set [3] in a line: DRUGMATRIX: Calcium Channel Type L, Phenylalkylamine radioligand binding (ligand: [3H] (-)-Desmethoxyverapamil (D-888)). Format: cell membranes, Rattus norvegicus, Wistar, Brain, Membrane. The settings on record: Not Active = under 50% inhibition at 10 µM.
Another data set addresses T2, Cytochrome P450 2A6 (Homo sapiens, UniProt P11509).
T2 sequence (P11509 whole entry): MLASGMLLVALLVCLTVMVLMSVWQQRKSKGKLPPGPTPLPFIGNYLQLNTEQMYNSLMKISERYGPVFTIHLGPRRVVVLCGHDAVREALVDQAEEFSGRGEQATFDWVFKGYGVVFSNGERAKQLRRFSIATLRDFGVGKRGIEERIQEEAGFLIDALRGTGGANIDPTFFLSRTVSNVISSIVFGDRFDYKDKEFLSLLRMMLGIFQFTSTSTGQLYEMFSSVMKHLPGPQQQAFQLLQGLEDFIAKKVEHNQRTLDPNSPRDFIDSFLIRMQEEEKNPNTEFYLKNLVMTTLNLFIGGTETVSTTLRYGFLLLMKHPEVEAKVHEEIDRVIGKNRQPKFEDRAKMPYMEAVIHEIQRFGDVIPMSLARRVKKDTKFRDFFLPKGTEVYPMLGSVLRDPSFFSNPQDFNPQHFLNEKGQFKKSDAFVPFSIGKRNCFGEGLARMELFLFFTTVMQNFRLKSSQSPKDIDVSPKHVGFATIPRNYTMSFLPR
The settings on record: bti-tn-5b1-4.

The target of another data set is Melanocortin receptor 4 (Homo sapiens, UniProt P32245). The data set is classed as cell membranes, HEK293, Membrane. Particulars: hek293. Note: in other assays of this panel Not Active means under 50% inhibition at 10 µM.
Chain of Melanocortin receptor 4 (P32245 whole entry): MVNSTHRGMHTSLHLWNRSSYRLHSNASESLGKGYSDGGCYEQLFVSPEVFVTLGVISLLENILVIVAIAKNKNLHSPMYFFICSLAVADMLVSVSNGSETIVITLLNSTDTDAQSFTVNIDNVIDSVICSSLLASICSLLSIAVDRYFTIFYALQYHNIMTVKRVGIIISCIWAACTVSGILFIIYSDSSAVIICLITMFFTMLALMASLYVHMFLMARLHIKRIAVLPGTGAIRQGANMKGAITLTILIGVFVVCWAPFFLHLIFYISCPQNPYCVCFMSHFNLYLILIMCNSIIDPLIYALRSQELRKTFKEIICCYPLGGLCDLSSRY

Chain of D(1A) dopamine receptor (P21728 whole entry): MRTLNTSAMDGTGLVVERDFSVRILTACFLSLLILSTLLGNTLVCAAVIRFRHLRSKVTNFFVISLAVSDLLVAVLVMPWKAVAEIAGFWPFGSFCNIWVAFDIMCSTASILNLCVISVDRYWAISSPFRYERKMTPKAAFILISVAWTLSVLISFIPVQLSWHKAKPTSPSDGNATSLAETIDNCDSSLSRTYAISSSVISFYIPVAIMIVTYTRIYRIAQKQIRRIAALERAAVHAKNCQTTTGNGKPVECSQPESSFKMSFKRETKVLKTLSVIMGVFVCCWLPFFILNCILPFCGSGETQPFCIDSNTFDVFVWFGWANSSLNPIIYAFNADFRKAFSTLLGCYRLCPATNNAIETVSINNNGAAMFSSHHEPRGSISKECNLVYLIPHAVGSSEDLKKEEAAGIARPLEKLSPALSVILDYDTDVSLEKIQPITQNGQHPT

For the molecule `CC(C)(C)NC(=O)[C@H]1CC[C@H]2[C@@H]3CC[C@H]4NC(=O)C=C[C@]4(C)[C@H]3CC[C@]12C` [FINASTERIDE], the IC50 result (in data set [1]; in data set [2]; at D(1A) dopamine receptor; in data set [3]; against Cytochrome P450 2A6; against Melanocortin receptor 4) was “Not Active” each time. The Ki result (in data set [1]; in data set [3]; at Cytochrome P450 2A6) was “Not Active” in each case.

Consider `CC(C)NNC(=O)c1ccncc1` [IPRONIAZID], for which the IC50 result (in data set [1]; in data set [2]; on D(1A) dopamine receptor; in data set [3]; against Cytochrome P450 2A6; at Melanocortin receptor 4) was “Not Active” each time. Further, the inhibition constant Ki entry (in data set [1]; in data set [3]; at Cytochrome P450 2A6) was “Not Active” each time.

Consider GRAMICIDIN, for which the concentration for half-maximal inhibition (IC50) – broadly, the concentration at which inhibition is half-maximal – in data set [1] is “Not Active”; in data set [2], “Not Active”; at D(1A) dopamine receptor, “Not Active”; in data set [3], “Not Active”; against Cytochrome P450 2A6, “Not Active”; on Melanocortin receptor 4 (read-out: IC50), 3.31 µM. The Ki (as a rule, the dissociation constant of the complex between target and ligand, obtained from inhibition or displacement) was “Not Active” in data set [1]; “Not Active” in data set [2]; “Not Active” on D(1A) dopamine receptor; “Not Active” in data set [3]; “Not Active” at Cytochrome P450 2A6; 3.19 µM on Melanocortin receptor 4 (read-out: Ki).

For `O=C(N/N=C/c1ccc([N+](=O)[O-])o1)c1cc([N+](=O)[O-])cc([N+](=O)[O-])c1O` [NIFURSOL], the IC50 entry (in data set [1]; in data set [2]; at D(1A) dopamine receptor; in data set [3]; on Cytochrome P450 2A6; against Melanocortin receptor 4) was “Not Active” throughout. For the same molecule, the inhibition constant (Ki) result (in data set [1]; in data set [3]; at Cytochrome P450 2A6) was “Not Active” in each case.

With `Oc1cccc(O)c1O` [PYROGALLOL], the 50% inhibitory concentration (IC50) entry (in data set [1]; in data set [2]; on D(1A) dopamine receptor; in data set [3]; on Cytochrome P450 2A6; at Melanocortin receptor 4) was “Not Active” throughout. The Ki result (in data set [1]; in data set [3]; at Cytochrome P450 2A6) was “Not Active” each time.

As for `COc1cc2nc(N3CCN(C(=O)c4ccco4)CC3)nc(N)c2cc1OC` [PRAZOSIN], the half-inhibitory concentration (IC50) entry (in data set [1]; in data set [2]; at D(1A) dopamine receptor; in data set [3]; against Cytochrome P450 2A6; against Melanocortin receptor 4) was “Not Active” each time. Also, the Ki entry (in data set [1]; in data set [3]; on Cytochrome P450 2A6) was “Not Active” throughout.

For the molecule `NNc1nncc2ccccc12` [HYDRALAZINE], the half-maximal inhibitory concentration (IC50) result (in data set [1]; in data set [2]; on D(1A) dopamine receptor; in data set [3]; against Cytochrome P450 2A6; against Melanocortin receptor 4) was “Not Active” throughout. The inhibition constant Ki result (in data set [1]; in data set [3]; on Cytochrome P450 2A6) was “Not Active” throughout.

Consider `C[C@]12C=CC(=O)C=C1CC[C@@H]1[C@@H]2[C@@H](O)C[C@@]2(C)[C@H]1CC[C@]2(O)C(=O)CO` [PREDNISOLONE], for which the IC50 entry (in data set [1]; in data set [2]; at D(1A) dopamine receptor; in data set [3]; against Cytochrome P450 2A6; against Melanocortin receptor 4) was “Not Active” throughout. Besides, the inhibition constant (Ki) entry (in data set [1]; in data set [3]; on Cytochrome P450 2A6) was “Not Active” throughout.

As to `NCCCC(O)(P(=O)(O)O)P(=O)(O)O` [ALENDRONIC ACID], the IC50 result (in data set [1]; in data set [2]; at D(1A) dopamine receptor; in data set [3]; against Cytochrome P450 2A6; against Melanocortin receptor 4) was “Not Active” each time. For the same molecule, the Ki result (in data set [1]; in data set [3]; at Cytochrome P450 2A6) was “Not Active” throughout.
